Broadly, the IC50 is the concentration at which inhibition is half-maximal.

The values that follow come from article PMC5974403, “The novel histone de acetylase 6 inhibitor, MPT0G211, ameliorates tau phosphorylation and cognitive deficits in an Alzheimer’s disease model” (Cell Death & Disease, 2018).

Series [1] has as its system SH-SY5Y cells. Put plainly: Subcellular fractionation of tau pools (tau aggregation) in transfected SH-SY5Y cells. The following applies: SH-SY5Y transfected hAPP 695 + hTau P301L, 0.1 μM, 24 h. Format: cell-based, human. How it is done: The fractionation scheme used to separate different cellular pools of tau, and the western blot analysis of the effects of the compounds on tau pools generated using the fractionation scheme are presented. b, d SH-SY5Y cells were transfected for 24 h with pCAX APP 695 and pRK5-EGFP-Tau P301L, incubated with or without MPT0G211 or ACY-1215 (0.1 μM) for another 24 h, and then the cells were fixed and stained by propidium iodide (b) or annexin V/PI double staining (d) and analyzed by flow cytometry. c, e Percentages of the subG1 phase (c) or annexin V-positive cells (e) in response to drug treatment as explained in (b). Results are presented as the mean ± SEM. *p < 0.05 and **p < 0.01 compared with the control group; ^#p < 0.05 and ^##p < 0.01 compared with the indicated groups TEXT PRINTED IN THE PICTURE: (B) MPT0G211: hAPP + hTauP301L: SubG1 10.91% | (B) ACY-1215: hAPP + hTauP301L: SubG1 15.40% | (D) MPT0G211: hAPP + hTauP301L: 9.56%; hAPP + hTauP301L: 11.26% | (D) ACY-1215: hAPP + hTauP301L: 9.28%; hAPP + hTauP301L: 11.25%
This assay followed a published method. Briefly, cells (1 × 10^7) were treated with drugs for 24 h and scraped off into breaking buffer (0.25 M sucrose, 10 mM HEPES, pH 7.2, 1 mM MgAc2, and protease inhibitors). […] Samples containing equal amounts of protein were analyzed using SDS-PAGE.

For series [2], the system named is 3×Tg-AD mice. Put plainly: Morris water maze in 3×Tg-AD mice. The format is in vivo, mouse. The following applies: 50 mg/kg oral daily for 3 months. How it is done: Red arrowheads indicate phosphorylated-tau proteins. Scale bar = 25 μm. Data represent the mean ± SEM. *p < 0.05, **p < 0.01, and ***p < 0.001 compared with the basal or control group; ^#p < 0.05, ^##p < 0.01, and ^###p < 0.001 compared with the vehicle-treated group
Six-month-old female B6;129-Psen1^tm1Mpm Tg(APPSwe,tauP301L)1Lfa/Mmjax (3xTg-AD) mice and control B6129SF2/J mice were obtained from the Jackson Laboratory (Bar Harbor, ME, USA), orally administered MPT0G211 (50 mg/kg) or memantine (30 mg/kg, dissolved in water) once daily for 3 months, and then subjected to Morris water maze. The assay that using 3xTg-AD mice was entrusted to carry out by Development Center for Biotechnology (New Taipei City, Taiwan).
The water maze was constructed as a white circular pool filled with water, and the water temperature was maintained at 23–27 °C. A white platform was established and submerged 5 cm below the surface of the water and styrofoam beads were added to make the platform invisible. Animals were trained by permitting them to stay for 10 s upon reaching the platform. […] Training was performed twice daily and 4 days during 1 week. Test trials were repeated twice with a 20 min interval for each animal. Scopolamine (1 mg/kg) was injected intraperitoneally 90 min before the test trial to induce AD-like features, except for the control group.

The nature of series [3]: BBB crossing assay: brain and plasma concentrations by LC-MS/MS after oral administration. The format is in vivo, rat. The note with it: rats. How it is done:
Successful crossing of the BBB by therapeutic drugs is essential in the treatment of CNS disorders. To explore whether MPT0G211 can penetrate into the brain, single oral administration of MPT0G211 was performed, and plasma and brain samples were collected and analyzed by liquid chromatography tandem mass spectrometry (LC-MS/MS) to obtain brain/plasma ratios.
This assay was performed by Eurofins Scientific. Briefly, SD rats weighing 200–300 g were provided by BioLasco Taiwan (under the license of Charles River Laboratories). Rats were sedated under general inhalant anesthesia (3% isoflurane) for blood collection using cardiac puncture 60 and 180 min after oral administration of the test compound. Aliquots of blood were gently mixed with lithium heparin, kept on ice, and centrifuged at 2500 × g for 15 min at 4 °C. The plasma was then harvested and stored at −70 °C. After blood sampling, rats were decapitated, and the entire brain was quickly removed and rinsed with cold saline (0.9% NaCl, w/v). The surface vasculature was ruptured, blotted with dry gauze, weighed, and stored on ice within 1 h of collection. Each brain was homogenized in 3 mL cold PBS, pH 7.4, for 10 s on ice, and centrifuged at 5400 × g for 15 min at 4 °C. Supernatants were precipitated using acetonitrile precipitation and subjected to high-performance LC-MS/MS.

Series [4] deals with HDAC6. Set-up: method as in PMID 29304284. The note with it: cited from earlier work.

Read-outs that look alike come from different tables or passages of the source.

For the compound `O=C(NO)c1ccc(CNc2cccc3cccnc23)cc1` [MPT0G211, N-hydroxy-4-((quinolin-8-ylamino)methyl)benzamide], in series [1], the “levels of aggregated tau” value is on record as “significantly reduced”. Besides, the “memory impairment (Morris water maze escape latency)” value in series [2] is “significantly ameliorated”. Besides, the Kp at 3 h in series [3] (SD, rat, brain/plasma, PO 50 mg/kg, 3 h, read-out: Brain/plasma ratio) stood at 0.9. In addition, the concentration at 1 h in series [3] (SD, rat, brain, PO 50 mg/kg, 1 h, read-out: Brain concentration) amounted to 56.9 ± 3.4 ng/g; in series [3] (SD, rat, plasma, PO 50 mg/kg, 1 h, read-out: Plasma concentration) it was 56.4 ± 4 ng/g. The concentration at 3 h in series [3] (SD, rat, brain, PO 50 mg/kg, 3 h, read-out: Brain concentration) turned out to be 11 ± 0.1 ng/g; in series [3] (SD, rat, plasma, PO 50 mg/kg, 3 h, read-out: Plasma concentration), 12.2 ± 1.4 ng/g. Besides, the Kp at 1 h in series [3] (SD, rat, in vivo, PO 50 mg/kg, 1 h, read-out: Brain/plasma ratio) was 1.01. Besides, the BBB penetration entry in series [3] (single oral administration) is reported as “can penetrate the BBB”. For the same compound, in series [3] (single oral administration), the “time for which concentrations were detected in the brain” value is “at least 3 h”. Moreover, the “selectivity for HDAC6 compared with the other HDAC isoforms” value in series [4] is listed as 1000 fold. In addition, the IC50 in series [4] (read-out: HDAC6 inhibition IC50) was 0.291 nM.
